Data: US20250388623A1, “PEPTIDE INHIBITOR AND USE THEREOF” (CHENGDU BRILLIANT INSPIRATION BIOTHERAPEUTICS CO., LTD, priority 2022, published 2025)

How the values were obtained:
[1] = system: P-Smad2/3; assay: P-Smad2/3 content in lung tissue, BLM mouse fibrosis model; type: in vivo; conditions: single intratracheal dose 3 mg/kg on Day 7, lung 24 h later; BLM model group = 100.00
Description: This example aimed to evaluate the inhibitory effect of polypeptides on the TGF-β downstream signaling pathway during fibrosis progression. TGF-β intracellular signaling relies on the phosphorylation events of Smad family proteins. The increase in Smad2/3 phosphorylation levels is an important indicator that signal transduction has occurred in the TGF-β signaling pathway.
In this example, 6- to 8-week-old male C57/6J mice weighing 18-20 g were used as subjects for the study. The experimental animals were randomized into groups, eight animals in each group. In this example, intratracheal administration was performed using an aerosol intratracheal metered dosing applicator during both the modeling and drug delivery processes, as described in Example 4. On the day of modeling (Day 1), the experimental animals were randomly assigned to groups and administered a 0.7 USP/kg dose of bleomycin solution (HanHui Pharmaceutical, Batch No. 20080511) via the tracheal route to induce the model. On Day 7, each peptide-treated group received a single intratracheal dose of peptide drug at a dosage of 3 mg/kg, while the BLM model group was given an equal volume of solvent (saline) as a control. Twenty-four hours after drug administration, the animals were dissected, and the lung tissues were collected and frozen in liquid nitrogen for future use. Total protein from the lung tissue was extracted after grinding the tissue in liquid nitrogen, and the total P-Smad2/3 content in the tissue was measured by using P-Smad2/3 ELISA kit (CST, Catalog No. 12001C). The ratio of the P-Smad2/3 content between the peptide-treated group and the model group was calculated to evaluate the effect of the peptide on TGFβ signaling.

[2] = target: T1, binding of TSP-1 protein to CD36, a TSP-1 receptor protein (Homo sapiens, UniProt P07996); assay: ELISA: blocking of CD36 binding to TSP-1 protein
T1 construct: purchased novoprotein (TSP-1); R&D Systems (Fc-tagged CD36) CU45 (TSP-1); 1955-CD-050 (CD36-Fc)
Description: ELISA assay was performed to detect the ability of the polypeptides to block the binding of TSP-1 protein to CD36, a TSP-1 receptor protein. TSP-1 protein (novoprotein, Catalog No. CU45) was diluted to 2 μg/mL using 100 mM carbonate buffer and added to sample wells (100 μL/well) of a 96-well ELISA plate (Thermo, Catalog No. 437111), and incubated overnight at 4° C.; after washing the plate twice using 1×PBST wash solution, 200 μL of 1.5% BSA (Sigma, Catalog No. B2064) was added to each well, and incubated at 37° C. for 2 h; after washing the plate 3 times using 1×PBST wash solution, the analytes were added (100 μL/well, 3 replicate wells; for the control group, 0.25 μg/mL of Fc-tagged CD36 protein (R&D Systems, Catalog No. 1955-CD-050); and for the polypeptide-treated groups, a mixture containing Fc-tagged CD36 protein and polypeptide at final concentrations of 0.25 μg/mL and 100 μM, respectively), and incubated at 37° C. for 3 h. After washing the plate 5 times using 1×PBST wash solution, a 1:500 dilution solution of FITC-labeled anti-Fc-tagged antibody (Beyotime, Catalog No. A0556) was added, and incubated for 1 h at 37° C.; after washing the plate 5 times using 1×PBST wash solution, a multifunctional ELISA instrument (TECAN, model: Infinite 200 Pro) was used to detect the intensity of FITC fluorescence signal in each sample well. The ability of the polypeptides to block CD36 binding to TSP-1 protein (Table 2-1) was assessed by calculating the ratio of the fluorescence signal from the polypeptide-treated groups to that of the control group, allowing for the determination of the blocking rate of the polypeptides in inhibiting CD36 binding to TSP-1 protein, i.e., (fluorescence signal of the control group-fluorescence signal of the polypeptide-treated group)/fluorescence signal of the control group×100%. Based on the blocking rate results obtained at the single concentration and on the polypeptide molecule properties, the preferred polypeptide molecules were assayed for concentration dependence (at 0 μM, 0.5 μM, 1 μM, 5 μM, 10 μM, and 100 μM), and IC50 values of the polypeptides for blocking CD36 binding to TSP-1 protein were determined to further assess the abilities of the preferred polypeptide molecules to block the binding of CD36 to TSP-1 (Table 2-2).

[3] = system: human liver cancer HepG2/C3A cells; assay: Transwell tumor cell migration, co-culture with PMA-differentiated THP-1 cells; type: cell-based; conditions: 100 μM polypeptide 48 h, co-culture 24 h; negative control group = 100.00
Description: (§1) This Example was to assess the effects of polypeptides on the migration abilities of different tumor cells. The experiment was performed using transwell nested chambers (membrane pore size of 8 μm), where THP-1 cells were inoculated in the lower chamber and treated with 300 nM PMA (Sigma, Catalog No.P1585) for differentiation and chamber-wall adherence, and then treated with 100 μM polypeptide (in the negative control, an equal volume of solvent was added) for 48 hours. The upper chamber was inoculated with tumor cells, human lung adenocarcinoma A549 cells (American Typical Culture Collection, ATCC, CCL-18), and co-cultured for 24 hours; or inoculated with human liver cancer HepG2/C3A cells (ATCC, CRL-10741), and co-cultured for 24 h; or inoculated with human breast cancer MCF7 cells (ATCC, HTB-22), and co-cultured for 48 h. After that, the upper chamber was taken out, fixed with 70% ethanol for 10 min and washed, then stained with Giemsa staining solution (Beyotime, Catalog No.C0131) for 45 min. After washing with double distilled water 2-3 times, unmigrated cells were wiped off the upper layer with a cotton swab. After the chamber was dried, it was observed under a microscope, and five different fields of view under a 100× magnification were randomly selected for counting and statistics. The polypeptides had significant inhibitory effects on the migratory abilities of human lung adenocarcinoma cells, human liver cancer cells, and human breast cancer cells.

[4] = system: human lung adenocarcinoma A549 cells; assay: as above; type: cell-based; conditions: 100 μM polypeptide 48 h, co-culture 24 h; negative control group = 100.00
Description: as §1

[5] = system: human breast cancer MCF7 cells; assay: as above; type: cell-based; conditions: 100 μM polypeptide 48 h, co-culture 48 h; negative control group = 100.00
Description: as §1

[6] = system: active TGF-β; assay: Active TGF-β level in lung tissue, bleomycin (BLM) mouse lung fibrosis model; type: in vivo; conditions: single intratracheal dose 3 mg/kg on Day 7, lung 24 h later; BLM model group = 100.00
Description: This Example was to evaluate the inhibitory effect of polypeptides on active TGF-β level during the progression of fibrotic disease. In this Example, a mouse lung fibrosis model induced by bleomycin (BLM) was used. The BLM animal model offers advantages, including a close mimicry of the pathological features of the primary disease, ease of use, and good reproducibility. It is the most representative model for studying the mechanisms of fibrosis and is recommended for evaluating drug efficacy.
In this Example, 6 to 8-week-old male C57/6J mice weighing 18-20 g were used as subjects for the study. The experimental animals were randomized into groups, 8 animals in each group, and the expressions of pro-fibrotic factors were detected at the endpoint of the experiment (Day 8) in this model. In this example, an aerosol intratracheal metered dosing applicator (Yuyan, model YAN30012) was utilized for intratracheal administration during the modeling and drug delivery processes. The dosing was performed as follows (An Official American Thoracic Society Workshop Report: Use of Animal Models for the Preclinical Assessment of Potential Therapies for Pulmonary Fibrosis, Am J Respir Cell Mol Biol Vol 56, Iss 5, pp 667-679, May 2017): The experimental animals were anesthetized with aerosolized isoflurane (RWD, lot no. 22041701) using a small animal anesthesia machine (RWD, model R500IE). Animals in the appropriate anesthetic state were positioned supine with heads facing up and bodies tilted on an operating platform (tilted at approximately) 60°, secured by their incisors. The practitioner gently lifted the tongue with tissue forceps in the right hand, pushing it outward and upward to open the animal's lower jaw. Holding the laryngoscope (Yuyan, model SR310-RW) in the left hand, the practitioner slid its anterior leaf-shaped blade along the midline of the tongue into the oral cavity until reaching the glottis, gently pressing the body and root of the tongue upward. The needle of the drug applicator was then inserted through the mouth into the glottis alongside the laryngoscope, and 50 μL of liquid was quickly injected. On the day of modeling (Day 1), the experimental animals were randomly assigned to groups and administered a 0.7 USP/kg dose of bleomycin solution (HanHui Pharmaceutical, Batch No. 20080511) via the tracheal route to induce the model. On Day 7, each peptide-treated group received a single intratracheal dose of 50 μL peptide drug (at a dosage of 3 mg/kg), while the model group was given an equal volume of solvent (saline, Kelong, Batch No. L221062501) as a control. Twenty-four hours after drug administration, the animals were dissected to collect lung tissue, which was ground in liquid nitrogen to extract total protein from the lung tissue. The active TGF-β content in the lung tissue of mice from each group was measured using the TGF-β ELISA kit (BOSTER, catalog number EK0515). The ratio of active TGF-β content between the peptide-treated group and the model group was calculated to evaluate the effect of the peptide on active TGF-β level.

[7] = system: mouse lung fibrosis model induced by bleomycin (BLM); assay: Inflammatory and fibrotic pathology (HE, Masson's trichrome) in BLM mouse fibrosis model; type: in vivo; parameters: scale not given here
Description: This Example was to assess the inhibitory effect of polypeptides on fibrotic pathology. 6- to 8-week-old male C57/6J mice weighing 18-20 g were used as subjects for the study. The experimental animals were randomized into groups, 6 animals in each group. On the day of modeling (Day 1), a single dose of 0.7 USP/kg of BLM solution was administered via the tracheal route to the BLM group and each peptide-treated group to induce the model. The negative control group received an equal volume of saline. Treatment dosing started on Day 8. Each peptide-treated group received the peptide drug intratracheally at a dosage of 3 mg/kg, while the positive control group received the peptide of SEQ ID NO: 50 at the same dosage, and the administration frequency was twice a week, with a total of 4 administrations. The BLM model group and the negative control group received an equal volume of solvent (saline) as a control. The procedure followed that described in Example 4.
On Day 21, the lung tissues were dissected, washed with saline to remove blood stains, and dried with gauze. Histopathological analysis was then performed on the dissected lung tissues. The lung tissues were perfused with 0.5 mL of paraformaldehyde via the trachea and placed in 4 mL of paraformaldehyde. A small amount of gauze was added to ensure the lung tissues were completely immersed in the fixative solution. The tissues were fixed for more than 24 hours. One lobe of the left lung and four lobes of the right lung were trimmed to the maximum coronal plane, placed in an embedding cassette, dehydrated overnight, and then paraffin-embedded to make 3 μm sections. An autostainer (Leica, model ST5010) was used for Hematoxylin (Herst, lot no. 201905)-Eosin (Chron, lot no.2018070301) (HE) staining, and MASSON'S trichrome (Celestineblue, Chron, lot no. MKCH8129; Aniline blue, Yuanye, lot no. H70J11S115483; Ponceau, Sigma, lot no. SHBM2047) staining. After mounting the sections, they were scanned using a digital panoramic scanner (Zhiyue, model WS-10). For each lung lobe, ≤10 visual fields were captured under a 20× magnification. The severity of inflammation and the severity of fibrosis were assessed using HE staining and Masson's trichrome staining, respectively, to evaluate the inhibitory effects of the polypeptides on inflammatory infiltration and fibrotic deposition at pathological fibrotic sites.

[8] = system: TSP-1-dependent TGF-β activation; assay: TSP-1-dependent TGF-β activation in PMA-differentiated THP-1 cells with 293-TGFβ Res reporter cells; type: cell-based; conditions: 100 μM polypeptide, 24 h; ratio to negative control group (1.00)
Description: In this Example, the inhibitory effects of the polypeptides on TSP-1-dependent TGF-β activation were detected using a model based on a high TSP-1 expressing cell. In the assay, THP-1 cells (American Typical Culture Collection, ATCC, TIB-20) were induced by phorbol ester (Phorbol 12-myristate 13-acetate, PMA) (Sigma, Catalog No. P1585) and differentiated into macrophage-like cells with distinct macrophage expression profiles.
The experiment was performed as follows: THP-1 cells were inoculated in a 96-well plate, and treated with 300 nM PMA for differentiation and adherence to form macrophage-like cells. 100 μM polypeptide was added (For the negative control group, an equal volume of PBS (the solvent for the polypeptide) was added, while the positive control group received an equal concentration of the polypeptide shown in SEQ ID NO: 50.) The cells were treated for 24 hours, and then a 293 reporter cell strain, 293-TGFβ Res cell strain (novoprotein, Catalog No. XCC03-1), was added for detecting TGF-β activity, and co-cultivated for 24 hours. Bio-Lite Luciferase Assay lysate comprising fluorescent substrate (Vazyme, Catalog No. DD1201-01) was added, and the fluorescent intensity was detected using a multifunctional microplate reader (TECAN, model Infinite 200 Pro). The inhibitory effect of the polypeptide on TGF-β activation was assessed by calculating the ratio of the fluorescence signal from the polypeptide-treated groups to that of the negative control group.

[9] = 100 μM polypeptide, 0.25 μg/mL Fc-tagged CD36, blocking of CD36 binding to TSP-1

T1 sequence (P07996 19-1170): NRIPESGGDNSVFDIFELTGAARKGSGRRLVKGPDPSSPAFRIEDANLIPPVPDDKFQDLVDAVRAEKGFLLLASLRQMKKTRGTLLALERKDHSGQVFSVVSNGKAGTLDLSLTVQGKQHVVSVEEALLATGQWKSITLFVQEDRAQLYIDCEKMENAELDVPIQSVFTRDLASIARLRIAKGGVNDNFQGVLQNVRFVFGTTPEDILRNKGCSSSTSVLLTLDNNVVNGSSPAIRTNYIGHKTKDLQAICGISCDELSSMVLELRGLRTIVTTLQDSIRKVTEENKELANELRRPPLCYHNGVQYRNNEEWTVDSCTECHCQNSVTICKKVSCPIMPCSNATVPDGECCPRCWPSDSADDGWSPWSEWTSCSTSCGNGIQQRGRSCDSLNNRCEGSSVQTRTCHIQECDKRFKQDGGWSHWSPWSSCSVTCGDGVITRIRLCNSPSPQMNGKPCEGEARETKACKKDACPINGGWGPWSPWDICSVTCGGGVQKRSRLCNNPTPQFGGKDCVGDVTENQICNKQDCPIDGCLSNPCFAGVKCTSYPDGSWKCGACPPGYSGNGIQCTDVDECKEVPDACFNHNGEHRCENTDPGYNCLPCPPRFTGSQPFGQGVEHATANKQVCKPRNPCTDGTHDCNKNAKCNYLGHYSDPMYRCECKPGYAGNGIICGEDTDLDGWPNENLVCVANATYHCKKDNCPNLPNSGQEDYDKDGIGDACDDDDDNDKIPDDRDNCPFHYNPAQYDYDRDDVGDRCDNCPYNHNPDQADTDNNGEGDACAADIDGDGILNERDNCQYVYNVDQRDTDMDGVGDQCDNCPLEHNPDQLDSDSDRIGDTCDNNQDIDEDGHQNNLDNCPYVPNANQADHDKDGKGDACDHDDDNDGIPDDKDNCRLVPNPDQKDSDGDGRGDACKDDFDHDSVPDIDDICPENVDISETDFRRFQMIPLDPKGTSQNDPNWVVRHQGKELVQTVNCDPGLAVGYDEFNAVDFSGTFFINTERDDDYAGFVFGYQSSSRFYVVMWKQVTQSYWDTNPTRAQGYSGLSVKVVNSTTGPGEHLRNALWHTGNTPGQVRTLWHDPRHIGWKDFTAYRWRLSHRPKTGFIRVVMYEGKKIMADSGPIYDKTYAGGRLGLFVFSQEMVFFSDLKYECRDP

| Blocking rate (Mean, %) [2, 9] [%] | inhibition at 100 µM ([2]; 3 h, 100 μM polypeptide, 0.25 μg/mL Fc-tagged CD36, blocking of CD36 binding to TSP-1, read-out: Blocking rate (Mean, %)) [%] | IC50 ([2]; concentrations 0-100 μM) [µM] | Substance | P-Smad2/3 content in lung tissue, ratio to model group, Mean(%) [1] [%] | HEPG2/C3A migration Mean (%) [3] [%] | A549 migration Mean (%) [4] [%] | MCF7 migration Mean (%) [5] [%] | active TGF-β content in lung tissue, ratio to model group, Mean(%) [6] [%] | Inflammatory score Mean ([7]; 3 mg/kg intratracheal twice weekly x4 from Day 8, Day 21, HE staining, BLM model 2.25, negative control 0.36) | Fibrosis score Mean ([7]; 3 mg/kg intratracheal twice weekly x4 from Day 8, Day 21, Masson's trichrome, BLM model 3.25, negative control 1.01) | Mean (relative fluorescence intensity) [8] |
| --- | --- | --- | --- | --- | --- | --- | --- | --- | --- | --- | --- |
| 15.07 |  |  | Ac-Gln-Asp-Ala-Glu-Asp-Asn-NH2 (Ac-QDAEDN-NH2) [SEQ ID NO: 05] | 72.35 | 74.72 | 63.92 | 42.55 | 74.15 |  |  |  |
| 16.89 |  |  | Ac-Thr-Gln-Asp-Ala-Glu-Asp-NH2 (Ac-TQDAED-NH2) [SEQ ID NO: 04] | 67.91 | 81.13 | 57.90 | 62.78 | 74.10 |  |  |  |
|  | 23.4 | 10.6 | H-YRVRFLAKENVTQDAEDN-OH [SEQ ID NO: 50, Tyr-Arg-Val-Arg-Phe-Leu-Ala-Lys-Glu-Asn-Val-Thr-Gln-Asp-Ala-Glu-Asp-Asn, reference compound] |  |  |  |  |  | 1.98 | 2.81 | 0.84 |
